From PubChem BioAssay AID330 (DTP/NCI, 2004)
“And” between values parts separate entries of the source, which are not always exact repeats. Equal values may be shown once. Toxic doses and inconclusive results are not listed. Rule for the calls: active = survival T/C of 150% or more; inactive = T/C below 125% in these data.

System: P388 leukemia ip, CD2F1 mice, survival T/C
Assay: NCI In Vivo Anticancer Drug Screen. Data for tumor model P388 Leukemia (intraperitoneal) in CD2F1 (CDF1) mice
Settings: endpoint: median survival time, higher = longer survival
How it was run: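 Mice carrying the transplanted tumor received test compound or vehicle. Survival was recorded in each group, and the value is the treated-group measurement divided by that of the vehicle-treated control group.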

[1] = dose: 25.0 mg/kg/injection, schedule: Q01DX009 (ip), vehicle: distilled water + Tween-80
[2] = dose: 50.0 mg/kg/injection, schedule: Q01DX009 (ip), vehicle: distilled water + Tween-80
[3] = dose: 100.0 mg/kg/injection, schedule: Q01DX009 (ip), vehicle: distilled water + Tween-80
[4] = dose: 200.0 mg/kg/injection, schedule: Q01DX009 (ip), vehicle: distilled water + Tween-80
[5] = dose: 12.5 mg/kg/injection, schedule: Q01DX009 (ip), vehicle: saline
[6] = dose: 50.0 mg/kg/injection, schedule: Q01DX009 (ip), vehicle: saline with Tween-80
[7] = dose: 200.0 mg/kg/injection, schedule: Q01DX009 (ip), vehicle: saline with Tween-80

Measured: T/C

Cc1cc2c(cc1CC(=O)O)CC(=O)NC2
inactive: dose: 1.56 mg/kg/injection, schedule: Q01DX009 (ip), vehicle: distilled water + Tween-80 109 % of control | dose: 3.13 mg/kg/injection, schedule: Q01DX009 (ip), vehicle: distilled water + Tween-80 104 % of control | dose: 6.25 mg/kg/injection, schedule: Q01DX009 (ip), vehicle: distilled water + Tween-80 123 % of control and 95 % of control | dose: 12.5 mg/kg/injection, schedule: Q01DX009 (ip), vehicle: distilled water + Tween-80 101 % of control | [1] 101 % of control and 96 % of control | [2] 104 % of control and 96 % of control | [3] 102 % of control and 95 % of control | [4] 100 % of control | dose: 400.0 mg/kg/injection, schedule: Q01DX009 (ip), vehicle: distilled water + Tween-80 92 % of control

Nc1ncnc2c1ncn2CC(O)CN(CCO)CCO (stereo not drawn)
inactive: dose: 60.0 mg/kg/injection, schedule: Q01DX005 (ip), vehicle: saline 97 % of control | dose: 120.0 mg/kg/injection, schedule: Q01DX005 (ip), vehicle: saline 95 % of control | dose: 240.0 mg/kg/injection, schedule: Q01DX005 (ip), vehicle: saline 96 % of control

COC(=O)C1=CO[C@@H](OC2OC(CO)C(O)C(O)C2O)[C@@H]2[C@@H](C)[C@@H](O)[C@@H](O)[C@]12O (stereo partly drawn)
inactive: dose: 25.0 mg/kg/injection, schedule: Q01DX005 (ip), vehicle: saline 102 % of control | dose: 50.0 mg/kg/injection, schedule: Q01DX005 (ip), vehicle: saline 102 % of control | dose: 100.0 mg/kg/injection, schedule: Q01DX005 (ip), vehicle: saline 100 % of control | dose: 200.0 mg/kg/injection, schedule: Q01DX005 (ip), vehicle: saline 108 % of control

CC1(C)CC(=O)C2=C(C1)NC1=C(C(=O)CC(C)(C)C1)C2c1cccs1
inactive: dose: 50.0 mg/kg/injection, schedule: Q01DX005 (ip), vehicle: saline with Tween-80 98 % of control | dose: 100.0 mg/kg/injection, schedule: Q01DX005 (ip), vehicle: saline with Tween-80 98 % of control | dose: 200.0 mg/kg/injection, schedule: Q01DX005 (ip), vehicle: saline with Tween-80 93 % of control

CCCC[P+](CCCC)(CCCC)CCN1C(=O)c2ccccc2C1=O
inactive: dose: 0.78 mg/kg/injection, schedule: Q01DX009 (ip), vehicle: water 92 % of control | dose: 1.56 mg/kg/injection, schedule: Q01DX009 (ip), vehicle: water 93 % of control | dose: 3.13 mg/kg/injection, schedule: Q01DX009 (ip), vehicle: water 106 % of control | dose: 6.25 mg/kg/injection, schedule: Q01DX009 (ip), vehicle: water 99 % of control | dose: 12.5 mg/kg/injection, schedule: Q01DX009 (ip), vehicle: water 100 % of control | dose: 25.0 mg/kg/injection, schedule: Q01DX009 (ip), vehicle: water 100 % of control and 101 % of control | dose: 50.0 mg/kg/injection, schedule: Q01DX009 (ip), vehicle: water 106 % of control | dose: 100.0 mg/kg/injection, schedule: Q01DX009 (ip), vehicle: water 116 % of control

CCCC(=O)c1ccc(C)cc1
inactive: dose: 100.0 mg/kg/injection, schedule: Q04DX003 (ip), vehicle: saline with Tween-80 104 % of control | dose: 200.0 mg/kg/injection, schedule: Q04DX003 (ip), vehicle: saline with Tween-80 104 % of control | dose: 400.0 mg/kg/injection, schedule: Q04DX003 (ip), vehicle: saline with Tween-80 86 % of control

Cc1ccnc(NS(=O)(=O)c2ccc(NC(=O)Nc3ccc(Cl)c(C(F)(F)F)c3)cc2)n1
inactive: dose: 50.0 mg/kg/injection, schedule: Q01DX005 (ip), vehicle: Klucel (hydroxypropylcellulose) (HPC) 99 % of control | dose: 100.0 mg/kg/injection, schedule: Q01DX005 (ip), vehicle: Klucel (hydroxypropylcellulose) (HPC) 104 % of control | dose: 200.0 mg/kg/injection, schedule: Q01DX005 (ip), vehicle: Klucel (hydroxypropylcellulose) (HPC) 96 % of control

NC(=NCc1ccccc1)c1ccc(N=C(N)c2ccc(C(N)=Nc3ccc(C(N)=NCc4ccccc4)cc3)cc2)cc1
inactive: dose: 5.0 mg/kg/injection, schedule: Q01DX009 (ip), vehicle: saline sonified 118 % of control | dose: 6.6 mg/kg/injection, schedule: Q01DX009 (ip), vehicle: saline 109 % of control | dose: 10.0 mg/kg/injection, schedule: Q01DX009 (ip), vehicle: saline 122 % of control | dose: 10.0 mg/kg/injection, schedule: Q04DX003 (ip), vehicle: saline with Tween-80 104 % of control | dose: 20.0 mg/kg/injection, schedule: Q04DX003 (ip), vehicle: saline with Tween-80 95 % of control

CCOC(=O)CC(=O)N(c1ccc(OC)cc1)C(C(=O)OC)c1ccccc1 (stereo not drawn)
inactive: dose: 60.0 mg/kg/injection, schedule: Q01DX005 (ip), vehicle: saline with Tween-80 101 % of control | dose: 120.0 mg/kg/injection, schedule: Q01DX005 (ip), vehicle: saline with Tween-80 104 % of control | dose: 240.0 mg/kg/injection, schedule: Q01DX005 (ip), vehicle: saline with Tween-80 104 % of control

O=C(O)C(Cc1ccccc1)NSc1ccccc1[N+](=O)[O-] (stereo not drawn)
inactive: [1] 98 % of control and 100 % of control | [2] 107 % of control | [3] 100 % of control and 116 % of control | [4] 109 % of control

CCC(=N\NC(=S)NCCN(CC)CC)/C(C)=N/NC(=S)NCCN(CC)CC
inactive: dose: 1.56 mg/kg/injection, schedule: Q01DX009 (ip), vehicle: saline 94 % of control | dose: 3.13 mg/kg/injection, schedule: Q01DX009 (ip), vehicle: saline 118 % of control | dose: 6.25 mg/kg/injection, schedule: Q01DX009 (ip), vehicle: saline 106 % of control | [5] 101 % of control

[Cu+2].[NH-]CC(=O)NC(Cc1ccccc1)C(=O)O.[NH-]CC(=O)NC(Cc1ccccc1)C(=O)O (stereo not drawn)
inactive: dose: 12.5 mg/kg/injection, schedule: Q04DX003 (ip), vehicle: saline 93 % of control | dose: 25.0 mg/kg/injection, schedule: Q04DX003 (ip), vehicle: saline 90 % of control | dose: 50.0 mg/kg/injection, schedule: Q04DX003 (ip), vehicle: saline 100 % of control

Cc1[nH]c(NC(=O)C(=O)O)c(C#N)c1C
inactive: [6] 106 % of control | [7] 100 % of control

[Cl][Pd]([Cl])([Cl])[Cl]
inactive: [5] 86 % of control | dose: 25.0 mg/kg/injection, schedule: Q01DX009 (ip), vehicle: saline 96 % of control | dose: 50.0 mg/kg/injection, schedule: Q01DX009 (ip), vehicle: saline 95 % of control

CC(C#N)(S(C)(=O)=O)S(=O)(=O)c1ccccc1 (stereo not drawn)
inactive: dose: 1.56 mg/kg/injection, schedule: Q01DX001 (ip), vehicle: saline with Tween-80 96 % of control | dose: 3.12 mg/kg/injection, schedule: Q01DX001 (ip), vehicle: saline with Tween-80 99 % of control | dose: 6.25 mg/kg/injection, schedule: Q01DX001 (ip), vehicle: saline with Tween-80 102 % of control

CCCCCCCCCCCCCCCCC[N+]1(CC)CCCCC1
inactive: dose: 0.39 mg/kg/injection, schedule: Q01DX009 (ip), vehicle: saline 111 % of control | dose: 0.78 mg/kg/injection, schedule: Q01DX009 (ip), vehicle: saline 116 % of control

CN(C)c1ccc(/C=c2\[nH]c(=O)/c(=C\c3ccc(N(C)C)cc3)[nH]c2=O)cc1
inactive: dose: 12.5 mg/kg/injection, schedule: Q01DX001 (ip), vehicle: saline with Tween-80 97 % of control | dose: 25.0 mg/kg/injection, schedule: Q01DX001 (ip), vehicle: saline with Tween-80 99 % of control | dose: 50.0 mg/kg/injection, schedule: Q01DX001 (ip), vehicle: saline with Tween-80 99 % of control | [6] 98 % of control | dose: 100.0 mg/kg/injection, schedule: Q01DX001 (ip), vehicle: saline with Tween-80 99 % of control | dose: 100.0 mg/kg/injection, schedule: Q01DX009 (ip), vehicle: saline with Tween-80 90 % of control | [7] 87 % of control | dose: 400.0 mg/kg/injection, schedule: Q01DX009 (ip), vehicle: saline with Tween-80 90 % of control

Nc1nc(N)c(-c2ccc(Cl)cc2)c(COc2ccc(NC(=O)c3ccc(NC(=O)CCl)cc3)cc2)n1
inactive: dose: 25.0 mg/kg/injection, schedule: Q01DX001 (ip), vehicle: saline 104 % of control | dose: 50.0 mg/kg/injection, schedule: Q01DX001 (ip), vehicle: saline 107 % of control | dose: 100.0 mg/kg/injection, schedule: Q01DX001 (ip), vehicle: saline 114 % of control
